In ChEMBL document CHEMBL1201861, “Genomics of Drug Sensitity in Cancer screening data, Wellcome Trust Sanger Institute”:

Tests used:
Assay in all cases: cells
BT-20 = format: functional, cell-based, Homo sapiens; conditions: Homo sapiens, BT-20;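 note: cell viability assay measuring suppression of growth in human BT-20 cells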
Description: SANGER: Inhibition of human BT-20 cell growth in a cell viability assay.

PA-1 = format: functional, cell-based, Homo sapiens; conditions: Homo sapiens, PA-1;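 note: IC50 for suppression of PA-1 cell proliferation, determined with a cell viability read-out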
Description: SANGER: Inhibition of human PA-1 cell growth in a cell viability assay.

SW948 = format: functional, cell-based, Homo sapiens; conditions: Homo sapiens, SW948;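 note: growth inhibition of SW948 cells, read out with a cell viability assay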
Description: SANGER: Inhibition of human SW948 cell growth in a cell viability assay.

NCI-H2342 = format: functional, cell-based, Homo sapiens; conditions: Homo sapiens, NCI-H2342;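 note: growth inhibition of the cancer cell line, determined with a cell viability assay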
Description: SANGER: Inhibition of human NCI-H2342 cell growth in a cell viability assay.

NCI-H1755 = format: functional, cell-based, Homo sapiens; conditions: Homo sapiens, NCI-H1755;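 note: cell viability readout used to measure growth inhibition of NCI-H1755 cells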
Description: SANGER: Inhibition of human NCI-H1755 cell growth in a cell viability assay.

HuCCT-1 = format: functional, cell-based, Homo sapiens, HuCCT1; conditions: Homo sapiens, HuCCT-1;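 note: growth inhibition of HuCCT-1 cells, read out by a cell viability assay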
Description: SANGER: Inhibition of human HuCCT1 cell growth in a cell viability assay.

RPMI-2650 = format: functional, cell-based, Homo sapiens; conditions: Homo sapiens, RPMI-2650
Description: SANGER: Inhibition of human RPMI-2650 cell growth in a cell viability assay.

CAL-39 = format: functional, cell-based, Homo sapiens; conditions: Homo sapiens, CAL-39;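 note: cell viability assay measuring growth inhibition of CAL-39 cells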
Description: SANGER: Inhibition of human CAL-39 cell growth in a cell viability assay.

A2058 = format: functional, cell-based, Homo sapiens; conditions: Homo sapiens, A2058;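 note: reduction of A2058 cell growth, read out with a viability assay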
Description: SANGER: Inhibition of human A2058 cell growth in a cell viability assay.

SW1573 = format: functional, cell-based, Homo sapiens; conditions: Homo sapiens, SW1573;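 note: growth inhibition of SW1573 cells, read out with a cell viability assay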
Description: SANGER: Inhibition of human SW1573 cell growth in a cell viability assay.

MHH-ES-1 = format: functional, cell-based, Homo sapiens; conditions: Homo sapiens, MHH-ES-1;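 note: cell growth inhibition measured by a cell viability assay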
Description: SANGER: Inhibition of human MHH-ES-1 cell growth in a cell viability assay.

UMC-11 = format: functional, cell-based, Homo sapiens; conditions: Homo sapiens, UMC-11;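 note: growth inhibition of UMC-11 cells, read out with a cell viability assay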
Description: SANGER: Inhibition of human UMC-11 cell growth in a cell viability assay.

MEL-JUSO = format: functional, cell-based, Homo sapiens; conditions: Homo sapiens, MEL-JUSO;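 note: growth inhibition of human MEL-JUSO cells, read out with a cell viability assay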
Description: SANGER: Inhibition of human MEL-JUSO cell growth in a cell viability assay.

NCI-H2228 = format: functional, cell-based, Homo sapiens; conditions: Homo sapiens, NCI-H2228;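 note: growth inhibition of human NCI-H2228 cells, read out by a cell viability assay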
Description: SANGER: Inhibition of human NCI-H2228 cell growth in a cell viability assay.

CHL-1 = format: functional, cell-based, Homo sapiens; conditions: Homo sapiens, CHL-1;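 note: cell growth inhibition, read out with a cell viability assay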
Description: SANGER: Inhibition of human CHL-1 cell growth in a cell viability assay.

HCC70 = format: functional, cell-based, Homo sapiens; conditions: Homo sapiens, HCC70;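 note: cell viability assay measuring how strongly the compound suppresses proliferation of HCC70 cells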
Description: SANGER: Inhibition of human HCC70 cell growth in a cell viability assay.

YAPC = format: functional, cell-based, Homo sapiens; conditions: Homo sapiens, YAPC;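 note: growth inhibition of YAPC cells, measured with a cell viability assay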
Description: SANGER: Inhibition of human YAPC cell growth in a cell viability assay.

SW 1116 = format: functional, cell-based, Homo sapiens; conditions: Homo sapiens, SW 1116;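 note: growth inhibition of SW1116 cells, read out with a cell viability assay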
Description: SANGER: Inhibition of human SW1116 cell growth in a cell viability assay.

COR-L23 = format: functional, cell-based, Homo sapiens; conditions: Homo sapiens, COR-L23;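 note: cell viability assay measuring how strongly compounds suppress growth of COR-L23 cells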
Description: SANGER: Inhibition of human COR-L23 cell growth in a cell viability assay.

CAL-72 = format: functional, cell-based, Homo sapiens; conditions: Homo sapiens, CAL-72;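 note: cell viability assay measuring inhibition of proliferation in the CAL-72 cell line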
Description: SANGER: Inhibition of human CAL-72 cell growth in a cell viability assay.

HCT-116 = format: functional, cell-based, Homo sapiens; conditions: Homo sapiens, HCT-116
Description: SANGER: Inhibition of human HCT-116 cell growth in a cell viability assay.

NCI-H1693 = format: functional, cell-based, Homo sapiens; conditions: Homo sapiens, NCI-H1693;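 note: growth inhibition of the human cell line, read out with a cell viability assay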
Description: SANGER: Inhibition of human NCI-H1693 cell growth in a cell viability assay.

H-EMC-SS = format: functional, cell-based, Homo sapiens; conditions: Homo sapiens, H-EMC-SS
Description: SANGER: Inhibition of human H-EMC-SS cell growth in a cell viability assay.

YH-13 = format: functional, cell-based, Homo sapiens; conditions: Homo sapiens, YH-13;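 note: cell viability readout of growth suppression in the human YH-13 cell line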
Description: SANGER: Inhibition of human YH-13 cell growth in a cell viability assay.

U2OS = format: functional, cell-based, Homo sapiens, U-2-OS; conditions: Homo sapiens, U2OS;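 note: growth inhibition of human U-2-OS cells, determined with a cell viability assay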
Description: SANGER: Inhibition of human U-2-OS cell growth in a cell viability assay.

HEC-1 = format: functional, cell-based, Homo sapiens; conditions: Homo sapiens, HEC-1;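 note: growth inhibition of the cell line, read out with a cell viability assay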
Description: SANGER: Inhibition of human HEC-1 cell growth in a cell viability assay.

Calu-3 = format: functional, cell-based, Homo sapiens; conditions: Homo sapiens, Calu-3;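 note: growth inhibition of human Calu-3 cells, determined with a cell viability assay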
Description: SANGER: Inhibition of human Calu-3 cell growth in a cell viability assay.

NCI-H460 = format: functional, cell-based, Homo sapiens; conditions: Homo sapiens, NCI-H460;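 note: cell viability assay scoring growth inhibition of human NCI-H460 cells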
Description: SANGER: Inhibition of human NCI-H460 cell growth in a cell viability assay.

U-251 = format: functional, cell-based, Homo sapiens; conditions: Homo sapiens, U-251;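 note: growth inhibition of human U-251 cells, read out through a cell viability assay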
Description: SANGER: Inhibition of human U251 cell growth in a cell viability assay.

AGS = format: functional, cell-based, Homo sapiens; conditions: Homo sapiens, AGS;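 note: growth inhibition of AGS cells, determined with a cell viability assay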
Description: SANGER: Inhibition of human AGS cell growth in a cell viability assay.

COLO-792 = format: functional, cell-based, Homo sapiens; conditions: Homo sapiens, COLO-792
Description: SANGER: Inhibition of human COLO-792 cell growth in a cell viability assay.

SW-620 = format: functional, cell-based, Homo sapiens; conditions: Homo sapiens, SW-620;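 note: growth inhibition of human SW-620 cells, measured by a cell viability assay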
Description: SANGER: Inhibition of human SW620 cell growth in a cell viability assay.

T84 = format: functional, cell-based, Homo sapiens; conditions: Homo sapiens, T84;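 note: growth inhibition measured with a cell viability readout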
Description: SANGER: Inhibition of human T84 cell growth in a cell viability assay.

SK-N-AS = format: functional, cell-based, Homo sapiens; conditions: Homo sapiens, SK-N-AS;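 note: growth inhibition of human SK-N-AS cells, measured with a cell viability assay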
Description: SANGER: Inhibition of human SK-N-AS cell growth in a cell viability assay.

OE33 = format: functional, cell-based, Homo sapiens; conditions: Homo sapiens, OE33;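 note: growth inhibition of human OE33 cells, measured by a cell viability assay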
Description: SANGER: Inhibition of human OE33 cell growth in a cell viability assay.

EGI-1 = format: functional, cell-based, Homo sapiens; conditions: Homo sapiens, EGI-1;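 note: cell viability readout used to gauge growth inhibition of EGI-1 cells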
Description: SANGER: Inhibition of human EGI-1 cell growth in a cell viability assay.

| Compound | IC50 (BT-20) [µM] | IC50 (PA-1) [µM] | IC50 (SW948) [µM] | IC50 (NCI-H2342) [µM] | IC50 (NCI-H1755) [µM] | IC50 (HuCCT-1) [µM] | IC50 (RPMI-2650) [µM] | IC50 (CAL-39) [µM] | IC50 (SW1573) [µM] | IC50 (MHH-ES-1) [µM] | IC50 (UMC-11) [µM] | IC50 (NCI-H2228) [µM] | IC50 (CHL-1) [µM] | IC50 (HCC70) [µM] | IC50 (YAPC) [µM] | IC50 (SW 1116) [µM] | IC50 (COR-L23) [µM] | IC50 (CAL-72) [µM] | IC50 (HCT-116) [µM] | IC50 (NCI-H1693) [µM] | other results |
| --- | --- | --- | --- | --- | --- | --- | --- | --- | --- | --- | --- | --- | --- | --- | --- | --- | --- | --- | --- | --- | --- |
| CN(C)C(=N)NC(=N)N [METFORMIN] | 15300 | 14200 | > 20000 | 8620 | > 20000 | > 20000 | > 20000 | > 20000 | > 20000 | > 20000 | > 20000 | > 20000 | 19500 | > 20000 | > 20000 | > 20000 | > 20000 | 6270 | > 20000 | > 20000 | IC50 (A2058): > 20000 µM; IC50 (MEL-JUSO): 16000 µM; IC50 (H-EMC-SS): > 20000 µM; IC50 (YH-13): > 20000 µM; IC50 (U2OS): > 20000 µM; IC50 (HEC-1): 16200 µM; IC50 (Calu-3): > 20000 µM; IC50 (NCI-H460): > 20000 µM; IC50 (U-251): 9900 µM; IC50 (AGS): 15700 µM; IC50 (COLO-792): 7510 µM |
| CC1(C)CNc2cc(NC(=O)c3cccnc3NCc3ccncc3)ccc21 [MOTESANIB] | > 2 | > 2 | > 2 | > 2 | > 2 | > 2 | > 2 | > 2 | > 2 | > 2 | > 2 | > 2 | > 2 | > 2 | > 2 | > 2 | > 2 | > 2 | > 2 | > 2 | IC50 (A2058): > 2 µM; IC50 (SW-620): > 2 µM; IC50 (T84): > 2 µM; IC50 (SK-N-AS): > 2 µM; IC50 (H-EMC-SS): > 2 µM; IC50 (YH-13): > 2 µM; IC50 (U2OS): > 2 µM; IC50 (OE33): > 2 µM; IC50 (HEC-1): > 2 µM; IC50 (EGI-1): > 2 µM; IC50 (Calu-3): > 2 µM; IC50 (NCI-H460): > 2 µM; IC50 (U-251): > 2 µM; IC50 (AGS): > 2 µM; IC50 (COLO-792): > 2 µM |
| CCN(CC)CCCCNc1ncc2cc(-c3cc(OC)cc(OC)c3)c(NC(=O)NC(C)(C)C)nc2n1 [PD-173074] | > 2 | > 2 | > 2 | > 2 | > 2 | > 2 | > 2 | > 2 | > 2 | > 2 | > 2 | > 2 | > 2 | > 2 | > 2 | > 2 | > 2 | > 2 | > 2 | > 2 | IC50 (A2058): > 2 µM; IC50 (SW-620): > 2 µM; IC50 (T84): > 2 µM; IC50 (SK-N-AS): > 2 µM; IC50 (H-EMC-SS): 0.347 µM; IC50 (YH-13): > 2 µM; IC50 (U2OS): > 2 µM; IC50 (OE33): > 2 µM; IC50 (HEC-1): > 2 µM; IC50 (EGI-1): > 2 µM; IC50 (Calu-3): > 2 µM; IC50 (NCI-H460): > 2 µM; IC50 (U-251): > 2 µM; IC50 (AGS): > 2 µM; IC50 (COLO-792): > 2 µM |
| Cn1cnc2c(F)c(Nc3ccc(Br)cc3Cl)c(C(=O)NOCCO)cc21 [SELUMETINIB] | > 4 | > 4 | > 4 | > 4 | > 4 | 1.3 | > 4 | 0.332 | > 4 | > 4 | > 4 | > 4 | > 4 | > 4 | > 4 | > 4 | 3.96 | > 4 | 1.06 | > 4 | IC50 (SW-620): 0.302 µM; IC50 (T84): > 4 µM; IC50 (SK-N-AS): 0.0928 µM; IC50 (H-EMC-SS): 0.291 µM; IC50 (YH-13): > 4 µM; IC50 (U2OS): > 4 µM; IC50 (OE33): > 4 µM; IC50 (HEC-1): > 4 µM; IC50 (EGI-1): 1.83 µM; IC50 (Calu-3): > 4 µM; IC50 (NCI-H460): 2.8 µM; IC50 (U-251): > 4 µM; IC50 (AGS): 1.12 µM; IC50 (COLO-792): 1.19 µM |
